# Test results published in patent US10939681B2, “Tetrazolinone compound and use thereof” (SUMITOMO CHEMICAL COMPANY, LIMITED, priority 2017, dated 2021).
# Test system: diamondback moth (Plutella xylostella)
# Assay: Control test against diamondback moth (Plutella xylostella), cabbage leaf spray
# Type: in vivo
# Settings: 500 ppm active ingredient, sprayed on cabbage seedlings 20 mL/seedling, 2nd instar larvae, after 5 days, 25° C.
# Procedure: Next, a Test Example is used to show efficacy of the Present compound against pests. In the following Test Example, the test was carried out at 25° C. The Present compound was formulated according to the process described in the Formulation Example 6 to obtain a formulation, and water containing a spreader (0.03% by volume) was added thereto to prepare a diluted solution containing 500 ppm of the active ingredient. Cabbage (Brassicae oleracea) seedlings (on the developmental stage of the second to third true leaf) were planted in a container, and said diluted solution was sprayed into the leaves of the seedlings at a ratio of 20 mL/seedling. Thereafter, the stems and leaves of the seedlings were cut out, and the leaves were placed into a container lined with a filter paper. Approximately five the 2nd instar larvae of diamondback moth (Plutella xylostella) were released into the container. After 5 days, the number of the surviving insects was examined, and the controlling value was calculated by the following equation. […] Controlling value (%)={1−(Cb×Tai)/(Cai×Tb)}×100 wherein the symbols in the equation represent the following meanings. […]
smiles,measurement,value
Cc1cccc(-n2nnn(C)c2=O)c1Cn1nnn(-c2cccc(C)c2COc2ccn(-c3ccc(Cl)cc3)n2)c1=O [Present compound],Controlling value (control effects),100%
